Reference: ChEMBL document CHEMBL5696442, “Discovery of type II inhibitors of TGFβ-activated kinase 1 (TAK1) and mitogen-activated protein kinase kinase kinase kinase 2 (MAP4K2)” (J Med Chem, 2015)

Tests used:
[1] = molecular target: T1, Serine/threonine-protein kinase 3 (Homo sapiens) (UniProt Q13188); test: Inhibition of MST2 Lys2 labeling site harbouring DIKAGNILLNTEGHAK in human Huh-7 cell lysate at 1 uM by KiNativ Profiling analysis relative to control; type: subcellular
T1 sequence (whole entry): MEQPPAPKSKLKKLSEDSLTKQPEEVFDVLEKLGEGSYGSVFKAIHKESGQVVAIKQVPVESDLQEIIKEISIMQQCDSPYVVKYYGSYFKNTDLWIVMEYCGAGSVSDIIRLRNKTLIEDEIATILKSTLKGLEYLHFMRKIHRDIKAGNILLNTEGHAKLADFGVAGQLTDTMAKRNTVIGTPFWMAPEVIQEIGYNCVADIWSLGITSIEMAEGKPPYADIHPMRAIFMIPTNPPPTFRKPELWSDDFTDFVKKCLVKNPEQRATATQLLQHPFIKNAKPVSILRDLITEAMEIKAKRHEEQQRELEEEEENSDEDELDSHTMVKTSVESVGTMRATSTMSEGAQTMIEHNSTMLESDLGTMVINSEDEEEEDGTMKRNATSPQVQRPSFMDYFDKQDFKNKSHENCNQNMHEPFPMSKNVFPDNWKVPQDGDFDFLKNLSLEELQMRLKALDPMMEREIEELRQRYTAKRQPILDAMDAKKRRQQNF

[2] = molecular target: DNA-PK/Ku70/Ku85 (Homo sapiens) (UniProt P78527+P12956+P13010); test: Inhibition of DNAPK ATP labeling site harbouring KGGSWIQEINVAEKNWYPR in human Huh-7 cells at 1 uM by KiNativ Profiling analysis relative to control; type: cell-based
[3] = molecular target: Calcium/calmodulin-dependent protein kinase type 1 (Homo sapiens) (UniProt Q14012); test: Inhibition of CAMK1 (unknown origin) at 10 uM by Ambit Kinomescan binding assay relative to control
Sequence of Calcium/calmodulin-dependent protein kinase type 1 (Homo sapiens) (Q14012 whole entry, looked up): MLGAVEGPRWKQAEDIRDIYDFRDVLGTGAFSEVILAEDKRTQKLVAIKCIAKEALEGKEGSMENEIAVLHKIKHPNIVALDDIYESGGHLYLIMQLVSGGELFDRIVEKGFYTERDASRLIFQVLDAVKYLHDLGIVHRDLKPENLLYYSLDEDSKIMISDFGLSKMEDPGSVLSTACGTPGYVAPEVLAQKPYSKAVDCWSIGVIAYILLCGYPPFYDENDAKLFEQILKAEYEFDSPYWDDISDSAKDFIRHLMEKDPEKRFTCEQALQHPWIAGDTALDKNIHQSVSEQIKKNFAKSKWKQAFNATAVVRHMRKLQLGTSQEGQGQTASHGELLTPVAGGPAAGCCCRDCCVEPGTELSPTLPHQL

[4] = molecular target: T2, Serine/threonine-protein kinase Nek1 (Homo sapiens) (UniProt Q96PY6); test: Inhibition of NEK1 Lys2 labeling site in human A-375 cells at 5 uM by KiNativ Profiling analysis relative to control; type: cell-based
T2 sequence (whole entry): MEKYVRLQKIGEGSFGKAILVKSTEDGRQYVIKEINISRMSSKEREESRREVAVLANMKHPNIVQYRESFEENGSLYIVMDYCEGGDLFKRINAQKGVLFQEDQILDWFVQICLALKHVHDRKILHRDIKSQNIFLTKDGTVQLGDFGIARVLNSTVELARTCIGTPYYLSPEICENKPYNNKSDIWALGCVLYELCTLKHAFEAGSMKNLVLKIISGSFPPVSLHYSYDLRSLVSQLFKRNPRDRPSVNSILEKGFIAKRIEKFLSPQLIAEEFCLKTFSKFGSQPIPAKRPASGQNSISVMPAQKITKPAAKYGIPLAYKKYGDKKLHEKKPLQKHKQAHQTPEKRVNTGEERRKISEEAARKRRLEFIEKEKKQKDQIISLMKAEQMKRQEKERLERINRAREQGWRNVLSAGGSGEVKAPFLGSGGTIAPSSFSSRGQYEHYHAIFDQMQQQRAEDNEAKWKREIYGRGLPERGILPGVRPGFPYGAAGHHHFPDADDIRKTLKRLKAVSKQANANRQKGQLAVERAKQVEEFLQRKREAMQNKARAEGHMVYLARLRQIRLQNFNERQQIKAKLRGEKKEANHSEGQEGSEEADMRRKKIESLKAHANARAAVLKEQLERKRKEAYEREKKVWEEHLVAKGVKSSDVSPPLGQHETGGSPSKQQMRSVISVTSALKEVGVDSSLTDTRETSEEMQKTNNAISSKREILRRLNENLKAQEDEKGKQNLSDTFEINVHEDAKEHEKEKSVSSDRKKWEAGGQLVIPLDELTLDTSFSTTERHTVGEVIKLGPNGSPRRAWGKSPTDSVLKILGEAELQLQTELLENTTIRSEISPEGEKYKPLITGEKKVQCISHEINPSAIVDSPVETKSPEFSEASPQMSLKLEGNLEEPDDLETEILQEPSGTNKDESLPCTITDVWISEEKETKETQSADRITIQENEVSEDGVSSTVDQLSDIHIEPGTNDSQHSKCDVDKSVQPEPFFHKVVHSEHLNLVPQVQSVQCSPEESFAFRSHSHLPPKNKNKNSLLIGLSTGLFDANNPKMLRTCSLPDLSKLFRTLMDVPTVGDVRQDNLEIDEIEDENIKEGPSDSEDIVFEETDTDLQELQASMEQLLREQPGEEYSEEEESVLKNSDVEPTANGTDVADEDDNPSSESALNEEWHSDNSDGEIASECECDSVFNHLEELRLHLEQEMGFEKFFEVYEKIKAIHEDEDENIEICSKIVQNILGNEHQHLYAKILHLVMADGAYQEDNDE

[5] = molecular target: STE20-like serine/threonine-protein kinase (Homo sapiens) (UniProt Q9H2G2); test: Inhibition of SLK Lys1 labeling site in human A-375 cells at 5 uM by KiNativ Profiling analysis relative to control; type: cell-based
Sequence of STE20-like serine/threonine-protein kinase (Homo sapiens) (Q9H2G2 whole entry, looked up): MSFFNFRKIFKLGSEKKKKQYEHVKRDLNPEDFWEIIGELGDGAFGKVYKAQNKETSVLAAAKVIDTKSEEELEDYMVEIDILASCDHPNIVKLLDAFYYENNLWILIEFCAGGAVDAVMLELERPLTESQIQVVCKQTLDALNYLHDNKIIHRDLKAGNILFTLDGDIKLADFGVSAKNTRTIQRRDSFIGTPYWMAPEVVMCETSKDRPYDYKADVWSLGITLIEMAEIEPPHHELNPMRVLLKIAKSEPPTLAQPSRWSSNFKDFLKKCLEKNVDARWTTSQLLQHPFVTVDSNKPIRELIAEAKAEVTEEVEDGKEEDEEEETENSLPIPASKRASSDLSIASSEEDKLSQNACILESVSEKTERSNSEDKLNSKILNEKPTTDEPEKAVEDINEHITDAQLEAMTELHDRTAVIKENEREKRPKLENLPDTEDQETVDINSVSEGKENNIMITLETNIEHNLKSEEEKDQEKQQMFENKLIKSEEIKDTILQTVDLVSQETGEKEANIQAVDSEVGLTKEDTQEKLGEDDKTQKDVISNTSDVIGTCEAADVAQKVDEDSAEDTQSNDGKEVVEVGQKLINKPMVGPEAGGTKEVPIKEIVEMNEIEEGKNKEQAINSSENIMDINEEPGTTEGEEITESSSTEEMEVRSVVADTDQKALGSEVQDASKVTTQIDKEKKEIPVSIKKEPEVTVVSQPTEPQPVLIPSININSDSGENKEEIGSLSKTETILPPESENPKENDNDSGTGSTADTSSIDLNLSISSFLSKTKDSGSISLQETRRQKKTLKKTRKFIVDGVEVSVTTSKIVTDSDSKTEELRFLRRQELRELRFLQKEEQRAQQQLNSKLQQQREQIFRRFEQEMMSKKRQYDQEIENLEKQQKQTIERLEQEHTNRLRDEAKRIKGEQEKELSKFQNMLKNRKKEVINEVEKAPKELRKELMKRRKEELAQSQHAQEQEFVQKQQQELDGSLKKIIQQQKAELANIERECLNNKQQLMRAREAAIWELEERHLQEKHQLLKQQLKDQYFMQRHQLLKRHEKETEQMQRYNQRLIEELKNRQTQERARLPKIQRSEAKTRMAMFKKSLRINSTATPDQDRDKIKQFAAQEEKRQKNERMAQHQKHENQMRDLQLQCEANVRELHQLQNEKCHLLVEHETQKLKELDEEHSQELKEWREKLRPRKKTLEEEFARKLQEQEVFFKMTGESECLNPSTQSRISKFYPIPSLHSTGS

[6] = molecular target: Serine/threonine-protein kinase 26 (Homo sapiens) (UniProt Q9P289); test: Inhibition of MST4 Lys1 labeling site in human A-375 cells at 0.05 uM by KiNativ Profiling analysis relative to control; type: cell-based
Sequence of Serine/threonine-protein kinase 26 (Homo sapiens) (Q9P289 2-416 limits assumed): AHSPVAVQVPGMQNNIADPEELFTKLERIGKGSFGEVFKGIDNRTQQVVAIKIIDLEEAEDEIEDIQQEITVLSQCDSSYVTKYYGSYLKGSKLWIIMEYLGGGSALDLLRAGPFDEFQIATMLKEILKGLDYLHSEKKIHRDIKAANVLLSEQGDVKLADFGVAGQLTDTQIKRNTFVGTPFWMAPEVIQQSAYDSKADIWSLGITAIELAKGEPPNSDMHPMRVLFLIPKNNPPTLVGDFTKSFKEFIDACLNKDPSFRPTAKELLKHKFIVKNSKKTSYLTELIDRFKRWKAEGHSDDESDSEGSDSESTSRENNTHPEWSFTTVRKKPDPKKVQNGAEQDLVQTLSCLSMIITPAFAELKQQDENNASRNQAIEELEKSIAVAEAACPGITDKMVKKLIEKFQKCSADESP

[7] = molecular target: Serine/threonine-protein kinase 3/4 (Homo sapiens) (UniProt Q13043+Q13188); test: Inhibition of MST1/2 K2 labeling site in human Huh-7 cells at 10 uM by KiNativ Profiling analysis relative to control; type: cell-based
Sequence of Serine/threonine-protein kinase 3/4 (Homo sapiens) (Q13043 whole entry, looked up, one chain of several): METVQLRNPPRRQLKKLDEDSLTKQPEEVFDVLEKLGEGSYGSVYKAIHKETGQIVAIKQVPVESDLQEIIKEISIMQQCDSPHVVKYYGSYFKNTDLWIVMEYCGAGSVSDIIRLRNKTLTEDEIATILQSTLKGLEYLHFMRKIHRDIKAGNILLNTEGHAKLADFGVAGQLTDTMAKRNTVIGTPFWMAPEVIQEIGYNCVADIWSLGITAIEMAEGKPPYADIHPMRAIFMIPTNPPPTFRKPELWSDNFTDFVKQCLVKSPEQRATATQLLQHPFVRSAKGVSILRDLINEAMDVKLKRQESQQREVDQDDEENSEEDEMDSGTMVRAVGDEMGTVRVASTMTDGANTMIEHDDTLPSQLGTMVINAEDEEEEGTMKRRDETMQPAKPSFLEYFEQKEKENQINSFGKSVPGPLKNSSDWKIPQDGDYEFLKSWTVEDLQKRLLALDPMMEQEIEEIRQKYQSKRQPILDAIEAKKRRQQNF

[8] = molecular target: Cyclin-dependent kinase 14 (Homo sapiens) (UniProt O94921); test: Inhibition of PFTAIRE1 Lys2 labeling site in human A-375 cells at 0.05 uM by KiNativ Profiling analysis relative to control
Sequence of Cyclin-dependent kinase 14 (Homo sapiens) (O94921 whole entry, looked up): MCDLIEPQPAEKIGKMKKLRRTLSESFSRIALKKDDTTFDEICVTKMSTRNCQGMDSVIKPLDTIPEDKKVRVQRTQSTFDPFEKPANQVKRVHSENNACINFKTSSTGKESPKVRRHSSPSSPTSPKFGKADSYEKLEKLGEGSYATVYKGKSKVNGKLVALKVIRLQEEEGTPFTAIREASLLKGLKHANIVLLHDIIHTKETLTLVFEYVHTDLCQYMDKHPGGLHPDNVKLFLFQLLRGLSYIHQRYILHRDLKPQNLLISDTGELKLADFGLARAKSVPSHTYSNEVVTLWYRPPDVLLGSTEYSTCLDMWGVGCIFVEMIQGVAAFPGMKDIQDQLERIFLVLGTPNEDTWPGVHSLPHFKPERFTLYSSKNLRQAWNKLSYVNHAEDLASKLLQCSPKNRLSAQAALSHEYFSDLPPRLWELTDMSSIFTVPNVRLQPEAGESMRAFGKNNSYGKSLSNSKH

Compound | inhibition [1] | inhibition [2] | inhibition [3] | inhibition [4] | inhibition [5] | inhibition [6] | inhibition [7] | inhibition [8]
CNc1cc(Oc2cc(C(=O)Nc3cc(N4CCN(C)CC4)cc(C(F)(F)F)c3)ccc2C)ncn1 | 8.2% | 68.1% | – | – | – | – | – | –
CCN1CCN(Cc2ccc(NC(=O)c3ccc(C)c(Oc4ccnc5[nH]ccc45)c3)cc2C(F)(F)F)CC1 | – | – | 0% | -7.1% | 34.6% | -8.3% | -9.8% | 0.6%
